These results are taken from ChEMBL document CHEMBL3244420, “Pyrrole esters of tropanols and related structures as analgesics” (J Med Chem, 1977).

For series [1], the system named is Mus musculus. The series is described as follows: Analgesic activity in mouse at 100 mg/kg, sc by hot plate method. The class given is functional, organism-based. Set-up: dose 100 mg/kg. For orientation: In hot-plate and tail-flick tests a longer latency is read as antinociception.
Series [2] relates to Mus musculus. The series is described as follows: Analgesic activity in sc dosed mouse by Nilsen method. It is filed as functional.
Series [3] deals with Mus musculus. The series is described as follows: Analgesic activity in sc dosed mouse by hot plate method. It is filed as functional.
Series [4] has as its system Mus musculus. In words: Analgesic activity in mouse at 20 mg/kg, sc by hot plate method. Further details: dose 20 mg/kg. The class given is functional, organism-based.
Series [5] deals with Rhesus monkey. In words: Toxicity in monkey assessed as precipitation of abstinence at 3 to 24 mg/kg. The class given is organism-based, Macaca mulatta. Set-up: dose 3-24 mg/kg. The settings on record: in vivo.
For series [6], the system named is Rhesus monkey. The series is described as follows: Suppression of narcotic abstinence syndrome in monkey at 3 to 24 mg/kg. The settings on record: Macaca mulatta. The class given is functional, organism-based.
In series [7] the test system is Rhesus monkey. The series is described as follows: Toxicity in monkey assessed as morphine-like dependence liability. It is filed as organism-based, Macaca mulatta. The conditions noted are these: in vivo.
Series [8] deals with Rhesus monkey. In words: Suppression of narcotic abstinence syndrome in monkey at 5 mg/kg administered as single dose. The class given is functional, organism-based. Set-up: dose 5 mg/kg. The settings on record: Macaca mulatta.
Series [9] relates to Rhesus monkey. The series is described as follows: Toxicity in nonwithdrawn monkey assessed as precipitation of abstinence at 5 mg/kg. It is filed as organism-based, Macaca mulatta. Further details: dose 5 mg/kg. The conditions noted are these: in vivo.
Series [10] has as its system Mus musculus. The series is described as follows: Analgesic activity in mouse at 50 mg/kg, sc by hot plate method. The class given is functional, organism-based. Set-up: dose 50 mg/kg.

The source made the active and inactive calls. The calls are words filed in the database; no cut-off is given here.

Take `Cc1[nH]c(C)c(C(=O)OC2CC(C)(C)NC(C)(C)C2)c1C`: the result with Mus musculus [1] was inactive.

What is called ED50 is the dose that gives a 50% effect, or the effect in half of the subjects. Take `COc1ccc2c3c1O[C@H]1[C@@H](O)C=C[C@H]4[C@@H](C2)N(C)CC[C@@]341` [CODEINE]: the results for the ED50 in the series with Mus musculus [2] and in the series on Mus musculus [3] were 4.5 mg/kg and 7.5 mg/kg, respectively.

Take `Cc1c(C(=O)OC2CCN(C)CC2)c(C)n(C)c1C`: the outcome in the series on Mus musculus [4] was Active.

In turn, `Cc1[nH]c(C)c(C(=O)OC2CCN(C)C2)c1C.Cl.O` (stereo unspecified) had an ED50 in the series with Mus musculus [3] of 64.3 mg/kg.

As to `Cc1[nH]c(C)c(C(=O)OC2CCN(CCc3ccccc3)CC2)c1C`, the result with Mus musculus [4] was Active.

With `Cc1[nH]c(C)c(C(=O)O[C@@H]2[C@H]3O[C@H]4C[C@@H]2N(C)[C@H]3C4)c1C`, the Activity result in the series with Rhesus monkey [5] is “Non-toxic”. For the same compound, the result in the series on Rhesus monkey [6] was inactive. The ED50 with Mus musculus [2] is 28.9 mg/kg; in the series with Mus musculus [3] it was 6 mg/kg.

Consider `Cc1[nH]c(C)c(C(=O)OC2CCCN(C)C2)c1C` (stereo unspecified), for which, in the series on Mus musculus [1], the outcome was inactive.

The compound `Cc1[nH]c(C)c(C(=O)OC2CCN(Cc3ccccc3)CC2)c1C.Cl.O` returned an ED50 in the series on Mus musculus [3] of 6.3 mg/kg.

Take `Cc1[nH]c(C)c(C(=O)OC2CCN(C)CC2)c1C.O=C(O)C(F)(F)F`: the Activity result with Rhesus monkey [7] and in the series on Rhesus monkey [9] was “Non-toxic” each time. Moreover, the result in the series on Rhesus monkey [8] was inactive. The results for the ED50 with Mus musculus [2] and with Mus musculus [3] were 7.1 mg/kg and 4.9 mg/kg, respectively.

Turning to `CN1CC[C@]23c4c5ccc(O)c4O[C@H]2[C@@H](O)C=C[C@H]3[C@H]1C5` [MORPHINE], the ED50 in the series on Mus musculus [2] was determined as 0.8 mg/kg; in the series with Mus musculus [3], 1.2 mg/kg.

As for `Cc1[nH]c(C)c(C(=O)O[C@@H]2C[C@H]3CC[C@@H](C2)N3C)c1C`, the result in the series with Mus musculus [10] was Active.

Consider `Cc1[nH]c(C)c(C(=O)O[C@H]2C[C@H]3CC[C@@H](C2)N3C)c1C.O.O=C(O)C(F)(F)F`, for which the 50% effect level in the series on Mus musculus [3] (ED50) was put at a dose of 21.3 mg/kg.
